ChEMBL document CHEMBL5376008, “Total Synthesis, Revised Structure, and Biological Evaluation of Elgonene B and Analogues” (J Nat Prod, 2024)
Activity calls are given as the source filed them. No cut-off for these calls is given here.

Legend:
Escherichia coli = assay: Antibacterial activity against Escherichia coli DH5a incubated for 18 hrs by spectrophotometric based microdilution assay; assay type: functional, organism-based
HeLa = assay: Cytotoxicity against human HeLa cells incubated for 24 hrs by MTT assay; assay type: toxicity, cell-based
KB 3-1 = assay: Cytotoxicity against human KB-3-1cells incubated for 24 hrs by MTT assay; assay type: toxicity, cell-based; conditions: kb 3-1, 24 h

Compound | Activity (Escherichia coli) | Activity (HeLa) | Activity (KB 3-1)
C=C([C@@H]1CC=C(C)CC1)[C@H](O)[C@H]1C[C@@H](C)C(=O)O1 | inactive | Non-Toxic | Non-Toxic
C=C([C@H]1CC=C(C)CC1)[C@H](O)[C@H]1C[C@@H](C)C(=O)O1 | – | Non-Toxic | Non-Toxic
C=C([C@H]1CC=C(C)CC1)[C@@H](O)[C@H]1C[C@@H](C)C(=O)O1 | inactive | Non-Toxic | Non-Toxic
C=C([C@@H]1CC=C(C)CC1)[C@@H](O)[C@H]1C[C@@H](C)C(=O)O1 | – | Non-Toxic | Non-Toxic
